Experiments:
[1] = test system: collagen-induced platelet aggregation; assay: Platelet aggregation test: collagen-induced platelet aggregation after oral dosing (method of Hermann et al.); format: in vivo, guinea pigs; conditions: Cavia porcellus, 1 h, 2 doses, time zero and 2 hours later, blood 60 minutes after last dose, active = about 50% inhibition of collagen-induced aggregation, N.A. = not active at 100 mg/kg × 2, read-out: P.A. (lowest active dose in the platelet aggregation test)
Method: Certain of the compounds of this invention are also platelet aggregation inhibitors and the results of testing for this activity are also included in Table I. The platelet aggregation test used involves the effect of a drug upon collagen-induced platelet aggregation using the method of Hermann et al., Proc. Soc. Exp. Biol. Med. 136, 548 (1972). According to this procedure, 300- 400 g. guinea pigs are used and the compound is administered by the oral route in 2 doses, at time zero and again 2 hours later, at a series of graded dose levels to groups of 4 pigs each. One group is maintained as a control group. Blood is removed by heart puncture 60 minutes after the last dose, and a platelet-rich plasma prepared therefrom. A stock collagen solution is prepared by solubilizing bovine Achilles tendon with acetic acid. The stock solution contains 0.25 percent collagen, has a pH of 2.8 and is kept under refrigeration. Prior to use, 0.4 ml. of 1M aqueous sodium hydroxide is added to a 1 ml. aliquot of the stock solution, followed by further dilutions with saline (1:2 1:4, 1:8, 1:16, 1:32, etc.) A standard collagen challenge was used, 0.05 ml. of 1:45 dilution, to induce platelet aggregation and the aggregation response of the drugged guinea pigs was compared to that of the controls to determine inhibition of aggregation. The lowest active dose in mg./kg. × 2 is then determined, "active" being defined as giving about 50% inhibition of collagen-induced aggregation. (Activity was determined by computor printout with significance at the 95 percent confidence level being attained at about the 50 percent inhibition level). In Table 1, column 1 gives the name of the compound, column 2, the ED50 calculated as set forth above and column 3, the percent inhibition at a 50 mg/kg dose level where an ED50 was not determined and column 4, the lowest active dose in the platelet aggregation test. N. A. indicates "not active" at 100 mg/kg × 2 in this latter test.

[2] = test system: erythema produced by an ultra-violet light source on guinea pig skin; assay: Anti-inflammatory: block of UV-light-induced erythema on guinea pig skin (method of Windner et al.); format: in vivo, albino guinea pigs; conditions: oral; for ED50: Cavia porcellus, dose producing 50 percent inhibition of the erythemic response, groups of four guinea pigs; for Inhibition at 50 mg/kg dose: percent inhibition of erythema at 50 mg/kg where an ED50 was not determined
Method: The compounds of this invention are anti-inflammatory and anti-thrombotic agents. […] Int. Pharmacodyn, 116, 261 (1958). In this procedure, albino quinea pigs weighing 225- 300 gms. are shaved on the back and chemically depilated 18 to 20 hours before initiation of the test procedures. Animals in groups of 4 are given predetermined dosages of the drug under test with one group being maintained as a control group. The drug is administered by the oral route as a suspension in 1 percent aqueous sodium carboxymethylcellulose. The control animals receive only the suspending median. After having being given the drug or suspension medium only, each group of animals is exposed to a high-intensity ultra-violet light for a predetermined period of time, the ultra-violet light being placed in contact with the depilated skin area on the animals' back. A gummed paper reinforcement is affixed to the lamp lens to provide an unexposed area of contrast for grading the light-produced erythema.
Beginning one hour after exposure and thereafter at half-hour intervals for another 1.5 hours, a trained observer grades erythema using an arbitraty scoring system based upon the degree of contrast and redness formed. […] The following scoring system is used: […]
______________________________________
Score Appearance of Exposed Area
0 No redness and no contrast
1 Slight redness with a faint
2 Slight to moderate redness
with a distinct outline
3 Marked redness with a distinct
Total scores from each treatment group of four guinea pigs are compared to the control treatment, and the percent inhibition calculated as follows: [formula]
If desired, a dose-response graph can be obtained by plotting dose versus percent inhibition, each point representing the average of one treatment group of four guinea pigs. The dose (ED50) in mg/kg cm.^2) which produced a 50 percent inhibition of the erythemic response for the particular compound tested can then be obtained, either directly or by extrapolation. Table I below summarizes the results obtained from testing representative compounds of the invention by the foregoing method.

| Structure (SMILES) | minimal effective dose [1] [mg/kg] | ED50 [2] [mg/kg] | Inhibition at 50 mg/kg dose [2] [%] |
| --- | --- | --- | --- |
| CCN1C(=O)CN2C(=O)C(c3ccccc3)c3cccc1c32 (centres unmarked) [1-Ethyl-6-phenyl-1H-pyrrolo[1,2,3-de]quinoxalin-2,5(3H,6H)-dione] | 100 | 33 |  |
| CN1C(=O)CN2C(=O)C(c3ccccc3)c3cccc1c32 (centres unmarked) [1-Methyl-6-phenyl-1H-pyrrolo 1,2,3-de]quinoxalin-2,5(3H,6H)-dione] | 3.12 | 4.4 |  |
| CCCN1C(=O)CN2C(=O)C(c3ccccc3)c3cccc1c32 (centres unmarked) [1-n-Propyl-6-phenyl-1H-pyrrolo[1,2,3-de]quinoxalin-2,5(3H,6H)-dione] |  | 47.5 |  |
| O=C1C(c2ccccc2)c2cccc3c2N1CCN3 (centres unmarked) [2,3-dihydro-6-phenyl-1H-pyrrolo[1,2,3-de]quinoxalin-5(6H)-one] | 100 | 7.9 |  |
| O=C1CCN2C(=O)C(c3ccccc3)c3cccc(c32)N1 (centres unmarked) [3,4-DIHYDRO-7-PHENYL-1H-PYRROLO[ 1,2,3-ef]-BENZO-[ f]DIAZEPINE-2,6(1H,7H)-DIONE] | 50 | 12 |  |
| O=C1CN2C(=O)C(c3ccccc3)(c3ccccc3)c3cccc(c32)N1 [6,6-diphenyl-1H-pyrrolo-[1,2,3-de]quinoxalin-2,5 (3H,6H)-dione] |  | 36 |  |
| O=C1CN2C(=O)C(c3ccc(Cl)cc3)c3cccc(c32)N1 (centres unmarked) [6-(4-chlorophenyl)-1H-pyrrolo[1,2,3-de]-quinoxalin-2,5(3H,6H)-dione] |  |  | 48 |
| O=C1CN2C(=O)C(c3ccc(F)cc3)c3cccc(c32)N1 (centres unmarked) [6-(p-fluoro)phenyl-1H-pyrrolo[1,2,3-de]quinoxalin-2,5 (3H,6H)-dione] | 12.5 | 7.7 |  |
| O=C1CN2C(=O)C(c3ccccc3)c3c2c(cc2ccccc32)N1 (centres unmarked) [6-phenyl-1H-benzo[g]pyrrolo[1,2,3-de]quinoxalin-2,5(3H,6H)-dione] |  |  | 42 |
| O=C1CN2C(=O)C(c3ccccc3)c3cccc(c32)N1 (centres unmarked) [6-phenyl-1H-pyrrolo[1,2,3-de]quinoxalin-2,5(3H,6H)-dione] | 1.56 | 0.9 |  |
| CCC1C(=O)Nc2cccc3c2N1C(=O)C3c1ccccc1 (centres unmarked) [6-phenyl-3-ethyl-1H-pyrrolo[1,2,3-de]quinoxalin-2,5(3H,6H)-dione] | 50 | 1 |  |
| CC1C(=O)Nc2cccc3c2N1C(=O)C3c1ccccc1 (centres unmarked) [6-phenyl-3-methyl-1H-pyrrolo 1,2,3-de]quinoxalin-2,5(3H,6H)-dione] | 1.56 | 2.5 |  |
| O=C1CN2C(=O)C(c3ccccc3)c3cc(Cl)cc(c32)N1 (centres unmarked) [6-phenyl-8-chloro-1H-pyrrolo[1,2,3-de]quinoxalin-2,5(3H,6H)-dione] | 100 |  | 50 |
| COc1cc2c3c(c1)C(c1ccccc1)C(=O)N3CC(=O)N2 (centres unmarked) [6-phenyl-8-methoxy-1H-pyrrolo[1,2,3-de]quinoxalin-2,5(3H,6H)-dione] | 6.25 | 45 |  |
| Cc1cc2c3c(c1)C(c1ccccc1)C(=O)N3CC(=O)N2 (centres unmarked) [6-phenyl-8-methyl-1H-pyrrolo[1,2,3-de]quinoxalin-2,5(3H,6H)-dione] | 3.12 |  | 51 |

Reference: US4075206A, “Substituted pyrroloquinoxalinones and diones” (Eli Lilly and Company, priority 1977, dated 1978)
